Experimental data from ChEMBL document CHEMBL1157055, “Limonoids and tirucallane derivatives from the seeds of a krishna mangrove, Xylocarpus moluccensis” (2010).
Activity calls are given as the source filed them. No cut-off for these calls is given here.

Columns and labels:
Brontispa longissima [1] = assay: Insecticidal activity against Brontispa longissima Gestro at 100 ug/ml; assay type: functional, organism-based
Brontispa longissima [2] = assay: Insecticidal activity against Brontispa longissima Gestro at 100 ug/ml after 96 hrs; assay type: functional
Brontispa longissima [3] = assay: Insecticidal activity against Brontispa longissima Gestro at 100 ug/ml after 72 hrs; assay type: functional

Compound	Activity (Brontispa longissima [1])	Activity (Brontispa longissima [2])	Activity (Brontispa longissima [3])
CC[C@H](C)C(=O)O[C@@]12C(=O)C3=C(CC[C@]4(C)C3=CC(=O)O[C@H]4c3ccoc3)[C@]3(C)[C@@H](CC(=O)OC)[C@](C)(C[C@]13O)[C@@H]2OC(=O)C(C)C	inactive		
CC[C@H](C)C(=O)O[C@H]1[C@@]2(C)C[C@@]3(OC(=O)[C@@H](C)CC)[C@](C)([C@H]4CC[C@]5(C)C(=C4C(=O)[C@@]13O)CC(=O)O[C@H]5c1ccoc1)[C@H]2CC(=O)OC	inactive		
CC[C@H](C)C(=O)O[C@@]12C[C@]3(C)[C@H](OC(=O)C(C)C)[C@]1(O)C(=O)C1=C(CC[C@]4(C)C1=CC(=O)O[C@H]4c1ccoc1)[C@]2(C)[C@H]3CC(=O)OC [MOLUCCENSINS H]		27.6%	20.7%
CC[C@H](C)C(=O)O[C@@]12C(=O)C3=C4CC(=O)O[C@@H](c5ccoc5)[C@]4(C)CC[C@@H]3[C@]3(C)[C@@H](CC(=O)OC)[C@](C)(C[C@@]31O)[C@@H]2OC(=O)C(C)C	inactive		
